Laboratory results published in patent US5466717A, “Halogenated 4'-methoxyacetophenones as microbicides and preservatives” (Buckman Laboratories Int'l, Inc., priority 1993, dated 1995).

Legend:
[1] = test system: Aspergillus sp., Aureobasidium sp., Trichoderma sp., Penicillium sp., and Chaetomium sp.; test: Resistance to growth of mold on the surface of interior coatings in an environmental chamber, ASTM D3273-86 (Table 4); set-up: key: 10: no mold growth; 9: very slight mold growth; 8: slight growth; 7: slight to medium growth; 6: slight to medium growth; 5: failure (extensive growth)
Procedure: A standard method to determine the resistance to growth of mold on the surface of interior coatings in an environmental chamber, ASTM method D3273-86, was used to determine the effectiveness of compounds 1 and 2.
Treatments were prepared by dissolving 2.0 g of the compounds of the present invention in 10 mL of acetone/methanol. Two types of paint were used: namely, an alkyd (self-priming white with Beckasol 296-70) and a latex (self-priming, alkyd-modified acrylic paint). […] Each sample was shaken vigorously for 5 minutes using a standard paint shaker.
Blocks of drywall having two inch by four inch dimensions were painted on the front surface and on all edges with two coats of the respective treatments. After drying, the back side was painted with one coat of clear latex. A hole was drilled half-way through the block at one end, and duplicate blocks per treatment were hung in an environmental chamber.
The aggressive nature of the interior of the chamber was developed by inoculating trays of moist potting soil with active cultures of Aspergillus sp., Aureobasidium sp., Trichoderma sp., Penicillium sp., and Chaetomium sp. The chamber was maintained at 100 percent relative humidity and 32° C. Final observations were made after four weeks (for latex blocks) or eight weeks (for alkyd blocks).

[2] = test system: ALGAE; test: Long term control of algal growth on a paint film, ASTM D3456 (Table 8); settings: latex paint on Southern yellow pine, 5 years and 5 months
Procedure: (§1) The effectiveness of halogenated 4'-methoxyacetophenones were evaluated for long term control of fungal and algal growth on a paint film following ASTM Procedure #D3456 (ASTM, 1916 Race St., Philadelphia, Pa. 19103). The test compared the effectiveness of compound 2, 2,2,3'-tribromo-4'-methoxyacetophenone, in latex paint with the commercially available biocides such as Nopcocide-96, and Troysan Polyphase over a period of 5 years and 5 months. The test paint was brush-applied (2 coats) over Southern yellow pine panels. A minimum of 24 hours was allowed between coats. The panels were rated based on the ASTM Procedure #D3274: […]

[3] = test system: FUNGI; test: Long term control of fungal growth on a paint film, ASTM D3456 (Table 8); settings: latex paint on Southern yellow pine, 5 years and 5 months
Procedure: as §1

[4] = 0.01 % by weight, alkyd, eight weeks
[5] = 0.01 % by weight, latex, four weeks
[6] = 0.025 % by weight, alkyd, eight weeks
[7] = 0.025 % by weight, latex, four weeks
[8] = 0.05 % by weight, alkyd, eight weeks
[9] = 0.05 % by weight, latex, four weeks
[10] = 0.10 % by weight, alkyd, eight weeks
[11] = 0.10 % by weight, latex, four weeks
[12] = 0.25 % by weight, alkyd, eight weeks
[13] = 0.25 % by weight, latex, four weeks
[14] = 0.50 % by weight, alkyd, eight weeks
[15] = 0.50 % by weight, latex, four weeks

Compound | Growth of mold on the surface of interior coatings [1, 4] | Growth of mold on the surface of interior coatings [1, 5] | Growth of mold on the surface of interior coatings [1, 6] | Growth of mold on the surface of interior coatings [1, 7] | Growth of mold on the surface of interior coatings [1, 8] | Growth of mold on the surface of interior coatings [1, 9] | Growth of mold on the surface of interior coatings [1, 10] | Growth of mold on the surface of interior coatings [1, 11] | Growth of mold on the surface of interior coatings [1, 12] | Growth of mold on the surface of interior coatings [1, 13] | Growth of mold on the surface of interior coatings [1, 14] | Growth of mold on the surface of interior coatings [1, 15] | ALGAE rating in paint film preservation ([2]; 0.25%) | ALGAE rating in paint film preservation ([2]; 0.5%) | FUNGI rating in paint film preservation ([3]; 0.25%) | FUNGI rating in paint film preservation ([3]; 0.5%)
COc1ccc(C(=O)CBr)cc1Br [Compound 1, 2,3'-dibromo-4'-methoxyacetophenone] | 5 | 8 | 5 | 8 | 6 | 9 | 6 | 9 | 7 | 10 | 7 | 10 |  |  |  | 
COc1ccc(C(=O)C(Br)Br)cc1Br [Compound 2, 2,2,3'-tribromo-4'-methoxyacetophenone] | 5 | 9 | 5 | 10 | 6 | 10 | 8 | 10 | 10 | 10 | 10 | 10 | 6.0 | 5.0 | 5.0 | 5.0
